Where two headings read alike, the source gives them in different places.
How the values were obtained:
[1] = test system: several cell lines; settings: prior art references; cited from earlier work
[2] = test system: breast cancer cell line MaTu; test: MTT growth inhibition in breast cancer cell line MaTu; assay type: cell-based, human; settings: MaTu cells; for IC50: 4 days incubation, MTT, read-out: IC50 μM ± Standard Deviation
Description: The breast cancer cell line MaTu was seeded, 5×10^3 cells per well, in 96-well-plates. The medium was RMPI 1640 with 2 mM Glutamine and 10% Foetal Bovine Serum. 24 hours later the test compounds were added in 6 concentrations. The cells were incubated for 4 days. The MTT solution was added to each well and incubated for 4 hours. The samples were read by an ELISA reader at 540 nm. The IC50 values were determined from growth curves. The test compounds were troxacitabine elaidic amid, troxacitabine petroselaidoate, troxacitabine-petroselaidic amide and troxacitabine γ-linolenoate.

Row | SMILES | IC50 ([2]; Homo sapiens, 96 h) [µM] | further results
1 | CCCCCCCCC=CCCCCCCCC(=O)Nc1ccn(C2COC(CO)O2)c(=O)n1 (stereo not drawn) [oleic acid amid derivative] |  | times better activity than the elaidic acid amide counterpart [1]: 2 to 5 times
2 | CCCCCCCC/C=C/CCCCCCCC(=O)Nc1ccn([C@@H]2CO[C@H](CO)O2)c(=O)n1 [troxacitabine elaidic-amide, Troxacitabine N^4-elaidic Acid Amide, reference compound] |  | IC50 [2]: 3.58 ± 2.56 µM
3 | CCCCCCCCCCC/C=C/CCCCC(=O)OC[C@H]1OC[C@@H](n2ccc(N)nc2=O)O1 [troxacitabine petroselaidoate, Troxacitabine-2′-hydroxymethyl-petroselaidoate] | 0.18 ± 0.12 | fold more active than troxacitabine elaidic amide ([2]; relative to troxacitabine elaidic amide): 20 fold
4 | CCCCC/C=C\C/C=C\C/C=C\CCCCC(=O)OC[C@H]1OC[C@@H](n2ccc(N)nc2=O)O1 [troxacitabine γ-linolenoate, Troxacitabine 2′-hydroxymethyl-6,9,12-linolenoate] | 0.83 ± 0.59 | 
5 | CCCCCCCCCCC/C=C/CCCCC(=O)Nc1ccn([C@@H]2CO[C@H](CO)O2)c(=O)n1 [troxacitabine-petroselaidic amide, Troxacitabine N^4-petroselaidic Acid Amide] | 0.15 ± 0.07 | 

— patent US20070135436A1, “Chemical compounds” (Clavis Pharma AS, priority 2005, published 2007)
